The values that follow come from US12486267B2, “Imidazo[1,2-A]pyridine and [1,2,4]triazolo[1,5-A]pyridine derivatives as TLR9 inhibitors for the treatment of fibrosis” (BRISTOL-MYERS SQUIBB COMPANY, priority 2020, dated 2025).

Holding throughout (type): cell-based
Test [1] concerns the target T1, human TLR9 (Homo sapiens, UniProt Q9NR96).
T1 sequence (Q9NR96 26-1032): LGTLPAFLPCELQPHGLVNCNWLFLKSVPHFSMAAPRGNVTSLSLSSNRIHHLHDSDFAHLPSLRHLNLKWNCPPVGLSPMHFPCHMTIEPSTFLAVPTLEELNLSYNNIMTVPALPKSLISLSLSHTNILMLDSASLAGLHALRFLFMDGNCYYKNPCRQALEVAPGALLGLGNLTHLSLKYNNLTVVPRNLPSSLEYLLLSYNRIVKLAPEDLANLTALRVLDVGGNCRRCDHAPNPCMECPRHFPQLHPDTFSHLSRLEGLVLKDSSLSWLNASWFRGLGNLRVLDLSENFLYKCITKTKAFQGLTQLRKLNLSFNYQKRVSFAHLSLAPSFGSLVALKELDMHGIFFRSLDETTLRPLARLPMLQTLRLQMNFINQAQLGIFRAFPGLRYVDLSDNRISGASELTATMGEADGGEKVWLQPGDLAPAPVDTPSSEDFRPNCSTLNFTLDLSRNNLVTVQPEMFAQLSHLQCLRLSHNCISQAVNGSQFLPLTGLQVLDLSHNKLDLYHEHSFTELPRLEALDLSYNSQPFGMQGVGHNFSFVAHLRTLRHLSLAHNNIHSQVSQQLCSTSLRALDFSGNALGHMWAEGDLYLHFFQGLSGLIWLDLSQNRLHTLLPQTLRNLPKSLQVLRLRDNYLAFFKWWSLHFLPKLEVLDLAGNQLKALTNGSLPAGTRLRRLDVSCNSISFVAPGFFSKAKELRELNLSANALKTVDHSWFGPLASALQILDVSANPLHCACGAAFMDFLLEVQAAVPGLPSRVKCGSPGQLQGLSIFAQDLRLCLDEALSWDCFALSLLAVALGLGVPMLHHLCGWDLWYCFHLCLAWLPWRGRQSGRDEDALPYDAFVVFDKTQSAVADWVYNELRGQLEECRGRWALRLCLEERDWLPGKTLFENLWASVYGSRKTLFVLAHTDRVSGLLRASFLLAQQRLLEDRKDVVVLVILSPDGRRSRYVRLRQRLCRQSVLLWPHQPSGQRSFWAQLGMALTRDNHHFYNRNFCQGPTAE
Kind of test: TLR9 inhibition reporter assay (HEK-Blue cells, SEAP reporter). The note with it: HEK-Blue cells overexpressing human TLR9; stimulated with ODN2006 5 nM; 22 hour incubation; SEAP readout. The method in brief:
(§1)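 HEK-Blue cells with an NF-κB/AP-1-driven SEAP reporter were pre-treated 30 min at room temperature with compound (0.05 nM–50 μM), then stimulated with gardiquimod 7.5 μM (TLR7), R848 15.9 μM (TLR8) or ODN2006 5 nM (TLR9). After 22 h at 37 °C, SEAP was read; % inhibition was referenced to agonist+DMSO and known-inhibitor wells.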
In general terms: In a reporter assay the amount or activity of a reporter protein is the signal.

The target of test [2] is T2, human TLR7 (Homo sapiens, UniProt Q9NYK1).
T2 sequence (Q9NYK1 27-1049): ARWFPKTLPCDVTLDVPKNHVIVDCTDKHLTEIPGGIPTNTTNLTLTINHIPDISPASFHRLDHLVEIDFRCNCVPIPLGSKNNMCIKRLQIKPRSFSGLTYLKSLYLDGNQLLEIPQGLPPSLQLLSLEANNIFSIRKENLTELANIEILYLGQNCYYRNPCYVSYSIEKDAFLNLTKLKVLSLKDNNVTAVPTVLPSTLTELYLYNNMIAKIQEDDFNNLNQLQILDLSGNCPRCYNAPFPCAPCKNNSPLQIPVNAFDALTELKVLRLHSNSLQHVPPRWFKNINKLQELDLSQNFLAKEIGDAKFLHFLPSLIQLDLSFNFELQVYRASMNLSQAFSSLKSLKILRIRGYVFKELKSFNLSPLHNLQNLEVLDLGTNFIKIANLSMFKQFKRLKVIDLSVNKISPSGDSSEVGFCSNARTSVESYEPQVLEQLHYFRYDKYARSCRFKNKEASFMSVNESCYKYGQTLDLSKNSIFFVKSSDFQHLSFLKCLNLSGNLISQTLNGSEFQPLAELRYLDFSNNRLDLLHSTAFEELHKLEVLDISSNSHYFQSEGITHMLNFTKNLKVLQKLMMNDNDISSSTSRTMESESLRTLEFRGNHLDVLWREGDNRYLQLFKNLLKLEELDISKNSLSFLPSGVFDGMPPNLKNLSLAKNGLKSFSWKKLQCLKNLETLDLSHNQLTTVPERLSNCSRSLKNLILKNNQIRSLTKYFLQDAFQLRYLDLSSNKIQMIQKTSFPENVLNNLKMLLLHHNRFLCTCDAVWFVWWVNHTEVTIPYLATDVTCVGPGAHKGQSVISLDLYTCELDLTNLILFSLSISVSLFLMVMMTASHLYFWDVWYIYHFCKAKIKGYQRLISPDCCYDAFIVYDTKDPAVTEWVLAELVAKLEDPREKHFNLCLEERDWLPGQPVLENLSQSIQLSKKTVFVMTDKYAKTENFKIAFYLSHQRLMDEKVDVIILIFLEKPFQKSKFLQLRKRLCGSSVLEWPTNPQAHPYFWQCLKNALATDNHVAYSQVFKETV
Kind of test: TLR7 inhibition reporter assay (HEK-Blue cells, SEAP reporter). Conditions: HEK-Blue cells overexpressing human TLR7; stimulated with gardiquimod 7.5 μM; 22 hour incubation; SEAP readout. The method in brief: as §1

Test [3] deals with T3, human TLR8 (Homo sapiens, UniProt Q9NR97).
T3 sequence (Q9NR97 27-1041): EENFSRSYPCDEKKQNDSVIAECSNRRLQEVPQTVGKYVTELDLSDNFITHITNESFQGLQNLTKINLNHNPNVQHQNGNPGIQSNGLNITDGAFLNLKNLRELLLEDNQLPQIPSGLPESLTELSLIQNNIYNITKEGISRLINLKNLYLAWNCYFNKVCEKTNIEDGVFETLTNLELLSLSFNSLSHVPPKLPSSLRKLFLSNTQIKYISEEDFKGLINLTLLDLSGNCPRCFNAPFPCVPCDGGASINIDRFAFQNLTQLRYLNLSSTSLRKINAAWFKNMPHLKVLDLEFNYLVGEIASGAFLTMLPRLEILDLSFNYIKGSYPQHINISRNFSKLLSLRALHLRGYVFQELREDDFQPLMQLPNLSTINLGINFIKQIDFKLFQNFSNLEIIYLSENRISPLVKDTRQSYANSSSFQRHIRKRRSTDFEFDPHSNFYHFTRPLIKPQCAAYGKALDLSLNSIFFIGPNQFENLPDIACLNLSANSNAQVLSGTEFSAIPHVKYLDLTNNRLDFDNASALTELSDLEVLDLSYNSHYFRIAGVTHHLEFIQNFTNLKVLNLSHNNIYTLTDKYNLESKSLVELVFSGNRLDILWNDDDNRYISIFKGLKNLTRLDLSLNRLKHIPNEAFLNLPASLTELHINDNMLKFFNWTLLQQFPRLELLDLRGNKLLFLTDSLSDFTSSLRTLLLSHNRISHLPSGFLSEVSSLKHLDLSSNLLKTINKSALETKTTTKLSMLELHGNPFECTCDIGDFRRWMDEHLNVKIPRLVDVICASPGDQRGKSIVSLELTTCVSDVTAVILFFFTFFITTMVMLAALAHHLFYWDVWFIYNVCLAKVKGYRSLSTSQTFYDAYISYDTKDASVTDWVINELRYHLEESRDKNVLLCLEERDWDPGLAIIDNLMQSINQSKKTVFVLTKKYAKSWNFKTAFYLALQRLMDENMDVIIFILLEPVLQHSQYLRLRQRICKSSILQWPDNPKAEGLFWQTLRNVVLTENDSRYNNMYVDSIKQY
Kind of test: TLR8 inhibition reporter assay (HEK-Blue cells, SEAP reporter). The note with it: HEK-Blue cells overexpressing human TLR8; stimulated with R848 15.9 μM; 22 hour incubation; SEAP readout. The method in brief: as §1

Take `COc1ccc(-c2cn3c(n2)CCC(C2CCN(C4CC5(C4)CN(CC(C)C)C5)CC2)C3)cc1OC` (racemic) [Example 52, 2-(3,4-dimethoxyphenyl)-6-(1-(2-isobutyl-2-azaspiro[3.3]heptan-6-yl)piperidin-4-yl)-5,6,7,8-tetrahydroimidazo[1,2-a]pyridine]: the values for the IC50 in test [1], in test [2] and in test [3] were 0.114 µM, 18 µM and above 50 µM, respectively.
On the same counts, the results for `COc1ccc(-c2cn3c(n2)CCC(C2CCN(C4CCN(C(C)C)CC4)CC2)C3)cc1OC` (single isomer, unassigned) [Example 35, 2-(3,4-dimethoxyphenyl)-6-(1′-isopropyl-[1,4′-bipiperidin]-4-yl)-5,6,7,8-tetrahydroimidazo[1,2-a]pyridine] are 0.042 µM, 13 µM and above 50 µM.
In the same order, the values of `COc1ccc(-c2cn3c(n2)CCC(C2CCN(C4CCN(CC(C)C)CC4)CC2)C3)cc1OC` (single isomer, unassigned) [Example 32, 2-(3,4-dimethoxyphenyl)-6-(1′-isobutyl-[1,4′-bipiperidin]-4-yl)-5,6,7,8-tetrahydroimidazo[1,2-a]pyridine] are 0.038 µM, 2.8 µM and above 50 µM.
As to `COc1ccc(-c2cn3cc(C4CCN(C5CCN(C6CC6)CC5)CC4)cc(C)c3n2)cc1F` [Example 4, 6-(1′-cyclopropyl-[1,4′-bipiperidin]-4-yl)-2-(3-fluoro-4-methoxyphenyl)-8-methylimidazo[1,2-a]pyridine], the IC50 in test [1] is 0.146 µM; in test [2] it was 5.5 µM; in test [3], above 50 µM.
On the same counts, the results for `COc1ccc(-c2cn3c(n2)CCC(C2CCN(C4CC5(C4)CN(C(C)C)C5)CC2)C3)cc1OC` (single isomer, unassigned) [Example 46, 2-(3,4-dimethoxyphenyl)-6-(1-(2-isopropyl-2-azaspiro[3.3]heptan-6-yl)piperidin-4-yl)-5,6,7,8-tetrahydroimidazo[1,2-a]pyridine] are 0.272 µM, 30 µM and above 50 µM.
For the molecule `COc1ccc(-c2cn3cc(C4CCN(C5CC6(C5)CN(C5CCC5)C6)CC4)cc(C)c3n2)cc1OC` [Example 14, 6-(1-(2-cyclobutyl-2-azaspiro[3.3]heptan-6-yl)piperidin-4-yl)-2-(3,4-dimethoxyphenyl)-8-methylimidazo[1,2-a]pyridine], the 50% inhibitory concentration (IC50) in test [1] is 0.068 µM; in test [2], above 50 µM; in test [3], above 50 µM.
On to `CS(=O)(=O)c1ccc(-c2cn3cc(C4CCN(C5CC6CCC(C5)N6C5CCOCC5)CC4)cc(F)c3n2)cc1` (single isomer, unassigned) [Example 121, 8-fluoro-2-(4-(methylsulfonyl)phenyl)-6-(1-(8-(tetrahydro-2H-pyran-4-yl)-8-azabicyclo[3.2.1]octan-3-yl)piperidin-4-yl) imidazo[1,2-a]pyridine], for which the values for the IC50 in test [1], in test [2] and in test [3] were 0.011 µM, 3.4 µM and above 50 µM, respectively.
On the same counts, the results for `COc1ccc(-c2cn3c(n2)CCC(C2CCN(C4CC5(C4)CN(C(C)C)C5)CC2)C3)cc1OC` (racemic) [Example 45, 2-(3,4-dimethoxyphenyl)-6-(1-(2-isopropyl-2-azaspiro[3.3]heptan-6-yl)piperidin-4-yl)-5,6,7,8-tetrahydroimidazo[1,2-a]pyridine] are 0.09 µM, 2.1 µM and above 50 µM.
Consider `Cc1cc(-c2ccc(N3CCN(C(C)C)CC3)cc2)cn2cc(-c3ccc(S(C)(=O)=O)cc3)nc12` [Example 65, 6-(4-(4-isopropylpiperazin-1-yl)phenyl)-8-methyl-2-(4-(methylsulfonyl)phenyl) imidazo[1,2-a]pyridine], for which the IC50 in test [1] is 0.67 µM; in test [2], 4.8 µM; in test [3], above 50 µM.
In the same order, the values of `CS(=O)(=O)c1ccc(-c2cn3cc(C4CCN(C5CCCN(C6CCOCC6)CC5)CC4)cc(F)c3n2)cc1` (single isomer, unassigned) [Example 130, 8-fluoro-2-(4-(methylsulfonyl)phenyl)-6-(1-(1-(tetrahydro-2H-pyran-4-yl)azepan-4-yl)piperidin-4-yl)imidazo[1,2-a]pyridine] are 0.01 µM, above 50 µM and 22.5 µM.
For `COc1ccc(-c2cn3cc(C4CC5CCC(C4)N5C4CCN(C5CC5)CC4)cc(C)c3n2)cc1OC` (single isomer, unassigned) [Example 25, 6-(8-(1-cyclopropylpiperidin-4-yl)-8-azabicyclo[3.2.1]octan-3-yl)-2-(3,4-dimethoxyphenyl)-8-methylimidazo[1,2-a]pyridine], the IC50 in test [1] was found to be 0.016 µM; in test [2], 3.5 µM; in test [3] it was 20 µM.

What is called IC50 is the concentration at which inhibition is half-maximal. A lower IC50 goes with greater potency in that assay.
